# Assay results: patent US7202237B2, “Pyridylether derivatives, their preparation and use” (NeuroSearch A/S, priority 1997, dated 2007)
# Where a name gives a salt, the structure may show the parent alone. Read-outs that look alike come from different tables or passages of the source.
# Tests used:
# [1] = molecular target: nAChRs comprised of α4 and β2 subunits (Rattus norvegicus, UniProt P09483+P12390); assay: In vitro inhibition of 3H-cytisine binding
# Procedure: In Vitro Inhibition of ^3H-cytisine Binding
# The predominant subtype with high affinity for nicotine is comprised of α4 and β2 subunits. nAChRs of the latter type can selectively be labelled by the nicotine agonist ^3H-cytisine.
# Tissue Preparation: Preparations are performed at 0–4° C. unless otherwise indicated. […] The homogenate is centrifuged at 27,000×g for 10 min. The supernatant is discarded and the pellet is resuspended in fresh buffer and centrifuged a second time. The final pellet is resuspended in fresh buffer (35 ml per g of original tissue) and used for binding assays.
# Assay: Aliquots of 500 μl homogenate are added to 25 μl of test solution and 25 μl of ^3H-cytisine (1 nM, final concentration), mixed and incubated for 90 min at 2° C. Non-specific binding is determined using (−)-nicotine (100 μM, final concentration). After incubation the samples are added 5 ml of ice-cold buffer and poured directly onto Whatman GF/C glass fibre filters under suction and immediately washed with 2×5 ml ice-cold buffer. The amount of radioactivity on the filters is determined by conventional liquid scintillation counting. Specific binding is total binding minus non-specific binding.
# [2] = molecular target: T1, neuronal nicotinic receptors (α4β2 subtype of nicotinic receptors) (Rattus norvegicus, UniProt P09483+P12390); assay: In vitro inhibition of 3H-epibatidin binding
# T1 construct: The forebrain (÷cerebellum) from a male Wistar rat (150–250 g) is homogenized; from tissue; host or cells: rat forebrain (without cerebellum) membrane homogenate
# T1 sequence (P09483 31-630): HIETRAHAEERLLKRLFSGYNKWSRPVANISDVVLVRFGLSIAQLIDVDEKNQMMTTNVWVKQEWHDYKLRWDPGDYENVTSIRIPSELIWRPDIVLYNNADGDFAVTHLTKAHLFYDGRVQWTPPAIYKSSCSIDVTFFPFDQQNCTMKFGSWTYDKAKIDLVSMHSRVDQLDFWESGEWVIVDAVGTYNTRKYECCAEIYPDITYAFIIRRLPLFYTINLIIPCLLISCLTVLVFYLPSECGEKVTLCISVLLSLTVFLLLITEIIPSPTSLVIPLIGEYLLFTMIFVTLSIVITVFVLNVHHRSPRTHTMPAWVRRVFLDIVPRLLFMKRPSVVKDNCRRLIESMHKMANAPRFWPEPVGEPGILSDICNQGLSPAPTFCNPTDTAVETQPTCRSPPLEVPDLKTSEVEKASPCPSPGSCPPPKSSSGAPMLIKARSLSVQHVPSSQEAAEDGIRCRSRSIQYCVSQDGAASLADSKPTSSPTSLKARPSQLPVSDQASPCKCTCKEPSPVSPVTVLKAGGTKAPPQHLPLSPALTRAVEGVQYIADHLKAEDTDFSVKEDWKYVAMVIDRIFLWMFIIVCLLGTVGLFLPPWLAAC
# T1 sequence (P12390 25-500): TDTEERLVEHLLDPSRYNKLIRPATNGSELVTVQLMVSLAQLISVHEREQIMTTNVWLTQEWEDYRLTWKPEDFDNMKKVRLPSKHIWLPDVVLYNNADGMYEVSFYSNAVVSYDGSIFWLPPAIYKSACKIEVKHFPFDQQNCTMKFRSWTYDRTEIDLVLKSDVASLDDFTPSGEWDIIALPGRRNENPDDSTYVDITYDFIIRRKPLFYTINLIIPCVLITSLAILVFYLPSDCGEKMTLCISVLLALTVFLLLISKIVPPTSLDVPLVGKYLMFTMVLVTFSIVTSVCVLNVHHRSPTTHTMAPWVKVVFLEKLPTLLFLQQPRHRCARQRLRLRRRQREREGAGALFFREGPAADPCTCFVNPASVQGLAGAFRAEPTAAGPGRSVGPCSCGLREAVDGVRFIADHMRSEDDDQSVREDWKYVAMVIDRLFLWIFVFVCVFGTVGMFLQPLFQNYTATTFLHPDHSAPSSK
# Procedure: In Vitro Inhibition of ^3H-epibatidin Binding
# The high affinity binding site for ^3H-epibatidin is most certainly binding to the α4β2 subtype of nicotinic receptors. The identity of the low affinity site is still unknown; does it represent a second nicotinic receptor or a second site in the same receptor.
# Tissue preparation: Preparations are performed at 0–4° C. unless otherwise indicated. The forebrain (÷cerebellum) from a male Wistar rat (150–250 g) is homogenized for 10–20 sec in 20 ml Tris, HCl (50 mM, pH 7.4) using an Ultra-Turrax homogenizer. The tissue suspension is centrifuged at 27,000×g for 10 min. The supernatant is discarded and the pellet is washed three times by centrifugation at 27,000×g for 10 min in 20 ml fresh buffer, and the final pellet is resuspended in fresh buffer (400 ml per g of original tissue) and used for binding assays.
# Assay: Aliquots of 2.0 ml homogenate are added to 0.100 ml of test solution and 0.100 ml of ^3H-epibatidin (0.3 nM, final concentration), mixed and incubated for 60 min at room temperature. Non-specific binding is determined using (−)-nicotine (30 μM, final concentration). After incubation the samples are poured directly onto Whatman GF/C glass fibre filters (presoaked in 0.1% PEI for at least 20 min) under suction and immediately washed with 2×5 ml ice-cold buffer. The amount of radioactivity on the filters is determined by conventional liquid scintillation counting. Specific binding is total binding minus non-specific binding.
# [3] = molecular target: nAChR formed by the α7 subunit isoform (Rattus norvegicus, UniProt Q05941); assay: biochemical; format: binding
# nAChR formed by the α7 subunit isoform, sequence (Q05941 23-502): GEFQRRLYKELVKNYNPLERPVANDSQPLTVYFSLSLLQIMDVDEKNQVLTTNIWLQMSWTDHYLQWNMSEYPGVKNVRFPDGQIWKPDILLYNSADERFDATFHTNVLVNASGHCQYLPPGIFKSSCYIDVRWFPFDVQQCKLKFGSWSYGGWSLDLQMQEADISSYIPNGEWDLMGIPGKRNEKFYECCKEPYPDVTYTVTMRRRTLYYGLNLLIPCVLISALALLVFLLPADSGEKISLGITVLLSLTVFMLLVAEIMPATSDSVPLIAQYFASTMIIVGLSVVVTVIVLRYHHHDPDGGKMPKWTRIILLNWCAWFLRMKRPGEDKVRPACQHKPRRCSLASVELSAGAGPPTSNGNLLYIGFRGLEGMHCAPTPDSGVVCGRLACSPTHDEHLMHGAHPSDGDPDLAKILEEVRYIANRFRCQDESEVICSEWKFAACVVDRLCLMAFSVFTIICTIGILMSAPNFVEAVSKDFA
# [4] = times that of morphine; cited from earlier work
# [5] = rat cerebral cortex homogenate, 1 nM 3H-cytisine, read-out: 3H-cytisine IC50
# [6] = rat forebrain homogenate, 0.3 nM 3H-epibatidin, read-out: 3H-epibatidin IC50
# nAChRs comprised of α4 and β2 subunits, sequence (P09483 31-630): as the sequence (P09483 31-630) above
# nAChRs comprised of α4 and β2 subunits, sequence (P12390 25-500): as the sequence (P12390 25-500) above
SMILES,"IC50 [1, 5] [nM]","IC50 [2, 6] [nM]",IC50 [3] [nM],further results
"CN1CCCC(Oc2cccnc2)C1 (racemic) [Compound 3a, (±)-1-Methyl-3-oxy-(3-pyridyl)-piperidine]",190,720,19000,
Clc1ccc(C2CC3CCC2N3)cn1 (centres unmarked) [Epibatidine],,,,analgesic potency relative to morphine [4]: ~500 times
"c1cncc(OC2CCCNCC2)c1 (racemic) (as salt: fumaric acid salt) [Compound 7b, (±)-4-Oxy-(3-pyridyl)-homopiperidine fumaric acid salt]",,,,melting point: 117 to 119 °C
"c1cncc(OC2CCNC2)c1 (racemic) [Compound 1b, (±)-3-Oxy-(3-pyridyl)-pyrrolidine]",,,,IC50 [1]: 70 nM; IC50 [2]: 410 nM; IC50 ([3]; read-out: 3H-α-bungarotoxin IC50): > 30000 nM
"c1cncc(OC2CCCNCC2)c1 (racemic) [Compound 7b, (±)-4-Oxy-(3-pyridyl)-homopiperidine fumaric acid salt]",60,300,20000,
"CN1CCC(Oc2cccnc2)C1 (racemic) [Compound 1a, (±)-1-Methyl-3-oxy-(3-pyridyl)-pyrrolidine]",100,700,16000,
